# ChEMBL document CHEMBL1129258, “Synthesis and structure-activity relationships of 2-pyridones: a novel series of potent DNA gyrase inhibitors as antibacterial agents” (J Med Chem, 1996)
# Tests used:
# [1] = biological target: T1, DNA gyrase (Escherichia coli) (UniProt P0AES6+P0AES4); assay: In vitro antibacterial activity against gram-negative organism […] ATCC 13048; format: functional; conditions: Enterobacter aerogenes
# [2] = biological target: T1, DNA gyrase (Escherichia coli); assay: In vitro antibacterial against gram-negative organism Escherichia coli JUHL; format: functional; conditions: Escherichia coli K-12
# [3] = biological target: T1, DNA gyrase (Escherichia coli); assay: In vitro antibacterial activity against gram-negative organism Klebsiella pneumoniae ATCC 8045; format: functional
# [4] = biological target: T1, DNA gyrase (Escherichia coli); assay: In vitro antibacterial activity against gram-negative organism Prov. stuartii CMX-640; format: functional; conditions: Providencia stuartii
# [5] = In vitro antibacterial activity against gram-negative organism Pseudomonas aeruginosa 5007; format: functional
# [6] = In vitro antibacterial activity against gram-negative organism Pseudomonas aeruginosa DPHD-2862; format: functional; conditions: Pseudomonas aeruginosa; read-out: MIC
# [7] = biological target: T2, DNA gyrase (Staphylococcus aureus) (UniProt P0A0K8+P20831); assay: In vitro antibacterial activity against gram-positive organism Staphylococcus aureus 1775; format: functional
# [8] = biological target: T2, DNA gyrase (Staphylococcus aureus); assay: In vitro antibacterial activity against gram-positive organism Staphylococcus aureus ATCC 6538p; format: functional
# [9] = biological target: T2, DNA gyrase (Staphylococcus aureus); assay: In vitro antibacterial activity against gram-positive organism Staphylococcus aureus NCTC-10649M; format: functional
# [10] = biological target: T1, DNA gyrase (Escherichia coli); assay: In vitro antibacterial activity against gram-positive organism Streptococcus bovis A-5169; format: functional; conditions: Streptococcus equinus
# Streptococcus pyogenes = assay: In vitro antibacterial activity against gram-positive organism Streptococcus pyogenes EES61; format: functional; conditions: Streptococcus pyogenes; read-out: MIC
# [11] = biological target: T1, DNA gyrase (Escherichia coli); assay: In vitro antibacterial activity against gram-positive organism Enterococcus faecium ATCC 8043; format: functional
# [12] = biological target: T1, DNA gyrase (Escherichia coli); conditions: Escherichia coli K-12
# Description: Concentration which causes 50% of the gyrase (Escherichia coli H560)-mediated maximal DNA cleavage.
# [13] = Pseudomonas aeruginosa, read-out: MIC
SMILES,MIC [1],MIC [2],MIC [3],MIC [4],"MIC [5, 13]",MIC [6],MIC [7],MIC [8],MIC [9],MIC [10],MIC (Streptococcus pyogenes),MIC [11],MIC [5],CC50 [12]
O=C(O)c1cc(C2CC2)c2cc(N3CCNCC3)c(F)cn2c1=O,0.05 µg/mL,0.01 µg/mL,0.01 µg/mL,1.56 µg/mL,0.39 µg/mL,25 µg/mL,50 µg/mL,0.2 µg/mL,0.39 µg/mL,3.1 µg/mL,1.56 µg/mL,0.78 µg/mL,–,0.15 µg/mL
CN1CCN(c2nc3c(-c4ccc(F)cc4F)cc(C(=O)O)c(=O)n3cc2F)CC1,0.78 µg/mL,0.39 µg/mL,0.2 µg/mL,25 µg/mL,6.2 µg/mL,> 100 µg/mL,> 100 µg/mL,0.2 µg/mL,0.2 µg/mL,12.5 µg/mL,3.1 µg/mL,6.2 µg/mL,–,–
Cc1c(F)c(N2CCC(N)C2)cc2c(C3CC3)cc(C(=O)O)c(=O)n12 (centres undefined),0.39 µg/mL,0.2 µg/mL,0.1 µg/mL,12.5 µg/mL,1.56 µg/mL,100 µg/mL,50 µg/mL,0.78 µg/mL,1.56 µg/mL,6.2 µg/mL,3.1 µg/mL,6.2 µg/mL,–,10 µg/mL
Cc1c(N2CC(N)C2)c(F)cn2c(=O)c(C(=O)O)cc(C3CC3)c12,0.05 µg/mL,0.01 µg/mL,0.01 µg/mL,1.56 µg/mL,–,12.5 µg/mL,6.2 µg/mL,0.1 µg/mL,0.05 µg/mL,0.78 µg/mL,0.39 µg/mL,0.2 µg/mL,0.2 pug ml-1,1.5 µg/mL
Cc1c(N2CCC(C)(N)C2)c(F)cn2c(=O)c(C(=O)O)cc(C3CC3)c12 (centres undefined),0.05 µg/mL,0.01 µg/mL,0.01 µg/mL,0.78 µg/mL,0.2 µg/mL,6.2 µg/mL,1.56 µg/mL,0.02 µg/mL,0.05 µg/mL,0.1 µg/mL,0.1 µg/mL,0.1 µg/mL,–,–
Cc1ccc(S(=O)(=O)O)cc1.NC1CCN(c2nc3c(cc2F)c(=O)c(C(=O)O)cn3-c2ccc(F)cc2F)C1 (centres undefined) [TOSUFLOXACIN TOSYLATE],0.05 µg/mL,0.05 µg/mL,0.02 µg/mL,1.56 µg/mL,0.39 µg/mL,> 100 µg/mL,> 100 µg/mL,0.05 µg/mL,0.05 µg/mL,0.78 µg/mL,0.39 µg/mL,0.2 µg/mL,–,–
Cc1c(N2C[C@@H](N)C[C@H]2C)c(F)cn2c(=O)c(C(=O)O)cc(C3CC3)c12,0.1 µg/mL,0.1 µg/mL,0.01 µg/mL,3.1 µg/mL,0.78 µg/mL,3.1 µg/mL,0.78 µg/mL,0.01 µg/mL,0.02 µg/mL,0.1 µg/mL,0.2 µg/mL,0.05 µg/mL,–,–
CCc1c(N2CCC(N)C2)c(F)cn2c(=O)c(C(=O)O)cc(C3CC3)c12 (centres undefined),0.39 µg/mL,0.2 µg/mL,0.1 µg/mL,3.1 µg/mL,1.56 µg/mL,50 µg/mL,6.2 µg/mL,0.1 µg/mL,0.1 µg/mL,–,0.39 µg/mL,0.39 µg/mL,–,–
Cc1c(N(C)CCN)c(F)cn2c(=O)c(C(=O)O)cc(C3CC3)c12,1.56 µg/mL,0.78 µg/mL,0.2 µg/mL,25 µg/mL,6.2 µg/mL,> 100 µg/mL,> 100 µg/mL,1.56 µg/mL,1.56 µg/mL,12.5 µg/mL,12.5 µg/mL,3.1 µg/mL,–,–
CCc1cc(C(=O)O)c(=O)n2ccc(N3CCC(N)C3)cc12.Cl (centres undefined),3.1 µg/mL,3.1 µg/mL,3.1 µg/mL,25 µg/mL,6.2 µg/mL,–,–,3.1 µg/mL,6.2 µg/mL,25 µg/mL,25 µg/mL,50 µg/mL,–,–
Cc1c(-n2ccnc2)c(F)cn2c(=O)c(C(=O)O)cc(C3CC3)c12,0.39 µg/mL,0.39 µg/mL,0.2 µg/mL,12.5 µg/mL,6.2 µg/mL,> 100 µg/mL,6.2 µg/mL,0.1 µg/mL,0.2 µg/mL,–,1.56 µg/mL,0.39 µg/mL,–,0.3 µg/mL
CN1CCN(c2nc3c(-c4ccc(F)cc4)cc(C(=O)O)c(=O)n3cc2F)CC1,0.78 µg/mL,0.39 µg/mL,0.2 µg/mL,25 µg/mL,6.2 µg/mL,–,25 µg/mL,0.39 µg/mL,0.39 µg/mL,25 µg/mL,6.2 µg/mL,25 µg/mL,–,–

# The next lines start with results.
MIC [1],MIC [2],MIC [3],MIC [4],"MIC [5, 13]",MIC [6],MIC [7],MIC [8],MIC [9],MIC [10],MIC (Streptococcus pyogenes),MIC [11],MIC [5],SMILES,CC50 [12]
3.1 µg/mL,3.1 µg/mL,0.39 µg/mL,> 100 µg/mL,25 µg/mL,–,> 100 µg/mL,6.2 µg/mL,6.2 µg/mL,> 100 µg/mL,> 100 µg/mL,> 100 µg/mL,–,O=C(O)c1cc(C2CC2)c2nc(N3CCOCC3)c(F)cn2c1=O,1.5 µg/mL
0.39 µg/mL,0.2 µg/mL,0.1 µg/mL,50 µg/mL,3.1 µg/mL,> 100 µg/mL,100 µg/mL,1.56 µg/mL,0.78 µg/mL,50 µg/mL,12.5 µg/mL,12.5 µg/mL,–,CN1CCN(c2nc3c(C4CC4)cc(C(=O)O)c(=O)n3cc2F)CC1,1 µg/mL
0.39 µg/mL,0.2 µg/mL,0.2 µg/mL,6.2 µg/mL,0.78 µg/mL,50 µg/mL,> 100 µg/mL,0.78 µg/mL,1.56 µg/mL,12.5 µg/mL,6.2 µg/mL,3.1 µg/mL,–,Cc1c(NCCN)c(F)cn2c(=O)c(C(=O)O)cc(C3CC3)c12,0.8 µg/mL
25 µg/mL,25 µg/mL,12.5 µg/mL,> 100 µg/mL,100 µg/mL,50 µg/mL,100 µg/mL,50 µg/mL,50 µg/mL,25 µg/mL,25 µg/mL,25 µg/mL,–,COc1ccc(-c2cc(C(=O)O)c(=O)n3cc(F)c(N4CCC(N)C4)nc23)cc1 (centres undefined),–
0.1 µg/mL,0.02 µg/mL,0.05 µg/mL,3.1 µg/mL,0.78 µg/mL,6.2 µg/mL,25 µg/mL,0.1 µg/mL,0.2 µg/mL,0.78 µg/mL,0.39 µg/mL,0.2 µg/mL,–,Cc1c(N2CCCNCC2)c(F)cn2c(=O)c(C(=O)O)cc(C3CC3)c12,–
0.1 µg/mL,0.02 µg/mL,0.05 µg/mL,0.78 µg/mL,0.2 µg/mL,6.2 µg/mL,6.2 µg/mL,0.1 µg/mL,0.2 µg/mL,0.39 µg/mL,0.2 µg/mL,0.2 µg/mL,–,Cc1c(N2C[C@@H]3C[C@H]2CN3)c(F)cn2c(=O)c(C(=O)O)cc(C3CC3)c12,–
0.2 µg/mL,0.05 µg/mL,0.05 µg/mL,3.1 µg/mL,1.56 µg/mL,25 µg/mL,3.1 µg/mL,0.05 µg/mL,0.05 µg/mL,0.39 µg/mL,0.39 µg/mL,0.39 µg/mL,–,CO[C@@H]1CN(c2c(F)cn3c(=O)c(C(=O)O)cc(C4CC4)c3c2C)C[C@H]1N,–
